# From patent US11903959B2 (EMORY UNIVERSITY, priority 2017, dated 2024)
# Several values for one entry are separate records, joined by “and”; a condition that tells them apart may be missing. Equal entries are not always repeated. Where two headings read alike, the source gives them in different places.
# Columns and labels:
# Tacaribe virus = experiment: microbe, parasite or virus in culture; type: cell-based; conditions: Mammarenavirus tacaribeense, Vero, Vero cells
# [1] = system: Lymphocytic choriomeningitis virus; experiment: microbe, parasite or virus in culture; type: cell-based; conditions: Mammarenavirus choriomeningitidis, Vero
# VEEV = experiment: microbe, parasite or virus in culture; type: cell-based; conditions: Venezuelan equine encephalitis virus
# EEEV = experiment: microbe, parasite or virus in culture; type: cell-based; conditions: Eastern equine encephalitis virus
# CHIKV = experiment: microbe, parasite or virus in culture; type: cell-based, Chikungunya virus
# DENV2 = experiment: microbe, parasite or virus in culture; type: cell-based; conditions: Dengue virus
# WNV = experiment: microbe, parasite or virus in culture; type: cell-based; conditions: West Nile virus, Vero 76
# YFV = experiment: microbe, parasite or virus in culture; type: cell-based; conditions: Yellow fever virus, Vero 76
# POWV = experiment: microbe, parasite or virus in culture; type: cell-based; conditions: Powassan virus, BHK, BHK cells
# ZIKV = experiment: microbe, parasite or virus in culture; type: cell-based; conditions: Zika virus, Vero 76
# Punta Toro virus = experiment: microbe, parasite or virus in culture; type: cell-based
# Maporal virus = experiment: microbe, parasite or virus in culture; type: cell-based
# Heartland virus = experiment: microbe, parasite or virus in culture; type: cell-based; conditions: Vero
# MERS = experiment: microbe, parasite or virus in culture; type: cell-based, MERS coronavirus; conditions: Middle East respiratory syndrome-related coronavirus, Vero C1008
# SARS = experiment: microbe, parasite or virus in culture; type: cell-based, SARS coronavirus; conditions: Severe acute respiratory syndrome coronavirus
# HCoV = experiment: microbe, parasite or virus in culture; type: cell-based; conditions: unidentified human coronavirus, Vero C1008
# Flu A H7N9 (High Path) = experiment: microbe, parasite or virus in culture; type: cell-based; conditions: Influenza A virus, H7N9, MDCK, MDCK cells
# Flu A H5N1 (High Path) = experiment: microbe, parasite or virus in culture; type: cell-based; conditions: Influenza A virus, H5N1, MDCK, MDCK cells
# Flu A H3N2 = experiment: microbe, parasite or virus in culture; type: cell-based, influenza A virus
# Flu A H5N1 (Low Path) = experiment: microbe, parasite or virus in culture; type: cell-based; conditions: Influenza A virus, H5N1, MDCK
# EBOV = experiment: microbe, parasite or virus in culture; type: cell-based, Ebola virus; conditions: Zaire ebolavirus, Vero
# NV = experiment: microbe, parasite or virus in culture; type: cell-based; conditions: Norovirus, HG23
# Enterovirus-71 = type: cell-based
# Enterovirus-68 = type: cell-based
# HRV-14 = experiment: microbe, parasite or virus in culture; type: cell-based
# RSV = experiment: microbe, parasite or virus in culture; type: cell-based, respiratory syncytial virus
# CEM cells = type: cell-based; conditions: CEM cells (lowest of the range)
# [2] = rat, in vivo, po, 50 mg/kg
# [3] = mouse, in vivo
# [4] = female, in vivo, po
# [5] = ICR (CD-1), mouse, in vivo
# [6] = system: pestivirus and hepacivirus; conditions: Stuyver et al., Antimicrob Agents Chemother, 2003; cited from earlier work
# in vivo [7] = conditions: female, DBA-1J, mouse, po
# in vivo [8] = conditions: ICR (CD-1), mouse, 180 mg/kg
# in vivo [9] = conditions: dog, 140 mg/kg
# [10] = Cytotoxicity (CC50) run with antiviral assays, MA-104 cells; conditions: African green monkey, CC50, MA-104 cells, Parainfluenza and RSV table
# [11] = Plasma pharmacokinetics in mice after a single dose of EIDD-2800; conditions: ICR (CD-1), mouse, oral, 180 mg/kg
smiles,measurement,setting,value
"O=c1nc(NO)ccn1C1OC(CO)C(O)C1O (centres unmarked) [EIDD-1931, 1-(3,4-dihydroxy-5-(hydroxymethyl)tetrahydrofuran-2-yl)-4-(hydroxyamino)pyrimidin-2-one]",EC50,Tacaribe virus,14.4 µM
same,EC90,[1],25.2 µM
same,EC90,VEEV; Vero 76,0.8 µM
same,EC50,"VEEV; Vero 76, VEEV, Vero76 cells",1.28 µM
same,EC50,"VEEV; Vero, VEE virus, Vero cell cytopathic effect (CPE) model",1 µM
same,EC90,EEEV; Vero 76,1.68 µM
same,EC50,"EEEV; Vero, EEE virus, Vero cell cytopathic effect (CPE) model",1.08 µM
same,EC50,CHIKV,1.8 µM
same,EC50,"CHIKV; Chikungunya virus, Vero",1.28 µM
same,EC50,"DENV2; DENV2, Vero 76",14 µM
same,EC50,"DENV2; DENV2, Vero 76, DENV2, Vero76 cells",12.8 µM
same,EC50,WNV,> 400 µM
same,EC90,YFV,26 µM
same,EC50,POWV,11.2 µM
same,EC90,ZIKV,2.36 µM
same,EC50,Punta Toro virus,20.4 µM
same,EC50,"Punta Toro virus; Punta Toro virus, Vero 76",20 µM
same,EC50,Maporal virus,> 124 µM
same,EC50,"Maporal virus; Maporal virus, Vero 76",84 µM
same,EC90,Heartland virus,7.84 µM
same,EC50,MERS,< 0.8 µM
same,EC90,MERS,< 0.8 µM
same,EC90,SARS; Vero 76,0.56 µM
same,EC90,SARS; Vero C1008,< 0.8 µM
same,EC50,"SARS; Vero C1008, SARS, Vero E6 cells",< 0.8 µM
same,EC50,HCoV,< 0.4 µM
same,EC50,Flu A H7N9 (High Path),> 48 µM
same,EC50,Flu A H5N1 (High Path),> 88 µM
same,EC50,Flu A H3N2,0.88 µM
same,EC50,"Flu A H3N2; Influenza A virus, H3N2, MDCK",0.96 µM
same,EC50,Flu A H5N1 (Low Path),1.28 µM
same,EC50,EBOV,4.7 µM
same,EC90,EBOV,25 µM
same,EC50,NV,> 100 µM
same,EC90,NV,> 100 µM
same,EC50,Enterovirus-71,3.44 µM and 3.36 µM
same,EC50,Enterovirus-68,1.28 µM and 1.16 µM
same,EC50,HRV-14,1.36 µM
same,EC50,"HRV-14; Rhinovirus B, HRV14",1.28 µM
same,EC50,RSV,27.6 µM
same,EC50,"RSV; human respiratory syncytial virus, MA104",14 µM
same,selectivity index,CEM cells,8
same,calculated bioavailability (% F),"[2]; male, Sprague-Dawley (SD)",28%
same,tissue distribution,[2],well distributed into all tissues tested
same,body weight,[3],weight loss was observed
same,t1/2,[4]; 4 mg/kg,8.2 ± 1.7 h
same,t1/2,[4]; 20 mg/kg,4.7 ± 1.3 h
same,t1/2,"[4]; outbred, 128 mg/kg",5.1 ± 0.8 h
same,t1/2,"[4]; outbred, 512 mg/kg",4.2 ± 0.6 h
same,t1/2,[5]; 15 mg/kg,2.9 h
same,t1/2,[5]; 225 mg/kg,4.2 h
same,AUCinf,[5]; 750 mg/kg,228.9 µM·h
same,Brain Cmax,[5]; 750 mg/kg,18.8 nmol/g
same,t1/2,[5]; 750 mg/kg,5.2 h
same,AUC0->t,Vero cells,228.6 pmol · h/M cells
same,antiviral activities,[6],antipestivirus and antihepacivirus activities
same,half-life,in vivo [7],4.1 to 4.7 h
same,Cmax,in vivo [7]; 30 mg/kg,3000 ng/mL
same,Cmax,in vivo [7]; 100 mg/kg,7700 ng/mL
same,Cmax,in vivo [7]; 300 mg/kg,11700 ng/mL
same,tmax,in vivo [7]; 300 mg/kg,0.25 to 0.5 h
same,half-life,in vivo [8],1.86 h
same,Cmax,in vivo [9],113 ± 21.1 µM
same,half-life,in vivo [9],4.8 ± 1 h
same,CC50,[10],272 µM
same,AUC(0-inf),[11],42.5 µM·h
same,Cmax,[11],11.4 µM
same,tmax,[11],0.5 h
